# Reference: PMC8264259, “A Novel Ruthenium(II) Complex With Lapachol Induces G2/M Phase Arrest Through Aurora-B Kinase Down-Regulation and ROS-Mediated Apoptosis in Human Prostate Adenocarcinoma Cells” (Frontiers in Oncology, 2021)
# Key:
# [1] = system: DU-145 cells; assay: Cell cycle analysis (PI, flow cytometry); type: cell-based, human; conditions: DU-145, 0.25-1.5 μM, 24 h
# Experimental: DNA staining was performed using BD Cycletest™ Plus DNA Kit (BD Biosciences, USA) according to the manufacturer’s instructions. Briefly, DU-145 cells were seeded (5.0 × 10^4 cells/well) into 24-well culture plates and maintained to attach at 37°C in 5% CO2. After 24 h, the culture medium was replaced by complete culture medium containing 0.25, 0.5, 1.0, and 1.5 μM of complex (2). DMSO (0.1% v/v) was used as the vehicle control. Then, after 24 h treatment, the cells were harvested and fixed with 70% ethanol at 4°C for 1 h. Cells were incubated with 0.1 mg/ml RNase and 0.5 mg/ml propidium iodide (PI) for 10 min. Samples were then filtered using 50-µm nylon mesh and the FACSCanto flow cytometer (Becton Dickinson, Franklin Lakes, NJ, USA) was used to analyze the DNA histogram. Data from 10,000 cells were acquired and analyzed using the ModFit software (BD Biosciences, USA). The results were expressed as percentage of cells in each cell cycle phase (G1, S, and G2/M).
# [2] = system: calf thymus DNA (ct-DNA); assay: DNA minor groove interaction assay with Hoechst 33258; type: binding; conditions: Hoechst 2.7 µM, ct-DNA 125 µM, complex 0-125 µM, 37°C
# Experimental: DNA minor groove interaction was assessed by examining the ability of the complexes to displace Hoechst 33258 (Thermo Fischer Scientific) from calf thymus DNA (ct-DNA) (Sigma-Aldrich). The ct-DNA solution was prepared by dilution of 2 mg of the ct-DNA in 1 ml of Tris-HCl buffer (4.5 mM Tris-HCl, 0.5 mM Tris-base, 50 mM NaCl, pH 7.4), and the concentration was determined by absorption spectrophotometric using the molar absorption coefficient 6600 mol^−1 dm^3 cm^−1 at 260 nm ([38]). Thus, the ct-DNA (125 µM) was incubated with Hoechst (2.7 µM), and the extinction of the fluorescence intensity was monitored by the addition of different concentrations (0–125 µM) of both complexes in Tris-HCl containing 10% of DMSO. Fluorescence emission spectra were recorded from […] to 500 nm after excitation wavelength of 343 nm, using an opaque 96-well plate, in a Synergy H1 Fluorescence Spectrophotometer (BioTek®), at 37°C.
# [3] = system: DU-145 cells; assay: Annexin-V/PI staining assay (flow cytometry); type: cell-based, human; conditions: for population of apoptotic cells: 24 h, control group 5.9%
# Experimental: The measurement of cell death was performed by the guidelines of ([35]). Detection of apoptotic/necrotic cells was determined by flow cytometry using the Alexa Fluor® 488 Annexin V/PI (Thermo Fischer Scientific), and the analyses were performed according to the manufacturer’s instructions. […] DMSO (0.1% v/v) was used as the vehicle control. Following 24 h of incubation, the cells were collected with Accutase® (Gibco-Invitrogen®), washed with PBS and resuspended in 200 μl of cold annexin-binding buffer. Next, 10 μl of Alexa Fluor® was added to Annexin V (50 μl/ml) staining buffer, and the mixture was incubated in the dark at 4°C for 15 min. Previously, the analyses, 100 μl of PI (2 μg/ml) was added, and then, the fluorescence was measured by flow cytometry in a FACSCanto flow cytometer (BD Biosciences, USA) using the Diva software. Ten thousand events were evaluated per experiment, and cellular debris was omitted from the analysis.
structure (smiles),measurement,setting,value
"CC(C)=CCC1=C([O-])C(=O)c2ccccc2C1=O.F[P-](F)(F)(F)(F)F.[Ru+2].c1ccc(P(CP(c2ccccc2)c2ccccc2)c2ccccc2)cc1.c1cnc2c(c1)ccc1cccnc12 [complex (2), [Ru(Lap)(dppm)(phen)]PF6]",cell cycle distribution,[1],increased cell number at the G2/M phase
same,displacement of Hoechst 33258 from ct-DNA (fluorescence),[2],decrease the fluorescence of the Hoechst-DNA system
same,population of apoptotic cells,"[3]; DU-145, 0.25 μM",11.8%
same,population of apoptotic cells,"[3]; DU-145, 0.5 μM",22.7%
same,population of apoptotic cells,"[3]; DU-145, 1.0 μM",41.4%
same,population of apoptotic cells,"[3]; DU-145, 1.5 μM",70.2%
same,fold lower concentration required for the same effect of cisplatin,"[3]; apoptotic DU-145 cells, vs cisplatin 25 μM",100 fold
